Values after ≈ are worked out from the molar mass of the structure shown. Like-named read-outs stand apart in the source and are kept apart here.
How the values were obtained:
Test in all cases: In vitro antibacterial activity, microtitration dilution method (MIC)
Format in all cases: cell-based
[1] = test system: Enterobacter cloacae MA 2646
Text: (§1) The compounds of the invention display antibacterial activity when tested by the microtitration dilution method as described in Heifetz, et al, Antimicr. Agents & Chemoth., 6, 124 (1974), which is incorporated herein by reference. By use of this method, the followed minimum inhibitory concentration values (MICs in μg/mL) were obtained for representative compounds of the invention.

Escherichia coli Vogel = settings: Escherichia coli Vogel, microtitration dilution; read-out: Minimal Inhibitory Concentration MIC
Text: as §1

[2] = test system: Providencia rettgeri M 1771; settings: M1771; Providencia rettgeri M 1771, microtitration dilution; read-out: Minimal Inhibitory Concentration MIC
Text: as §1

[3] = test system: Staphylococcus aureus H 228; settings: H228; Staphylococcus aureus H 228, microtitration dilution; read-out: Minimal Inhibitory Concentration MIC
Text: as §1

[4] = test system: Streptococcus pyogenes C-203; settings: C203; Streptococcus pyogenes C-203, microtitration dilution; read-out: Minimal Inhibitory Concentration MIC
Text: as §1

[5] = test system: Klebsiella pneumoniae MGH-2
Text: (§2) Agents & Chemoth., 6, 124 (1974), which is incorporated herein by reference.

[6] = test system: Pseudomonas aeruginosa UI-18
Text: as §2

[7] = test system: Staphylococcus aureus UC-76
Text: as §2

[8] = test system: Streptococcus faecalis MGH-2; settings: Enterococcus faecalis, MGH2; Streptococcus faecalis MGH-2, microtitration dilution; read-out: Minimal Inhibitory Concentration MIC
Text: as §2

[9] = test system: Streptococcus pneumoniae SV-1; settings: SV1; Streptococcus pneumoniae SV-1, microtitration dilution; read-out: Minimal Inhibitory Concentration MIC
Text: as §2

Proteus rettgeri M 1771 = settings: Providencia rettgeri, M1771; Proteus rettgeri M 1771, microtitration dilution; read-out: Minimal Inhibitory Concentration MIC
Text: as §2

[10] = MA2646, Enterobacter cloacae MA 2646, microtitration dilution, read-out: Minimal Inhibitory Concentration MIC
[11] = MGH2, Klebsiella pneumoniae MGH-2, microtitration dilution, read-out: Minimal Inhibitory Concentration MIC
[12] = UI18, Pseudomonas aeruginosa UI-18, microtitration dilution, read-out: Minimal Inhibitory Concentration MIC
[13] = UC76, Staphylococcus aureus UC-76, microtitration dilution, read-out: Minimal Inhibitory Concentration MIC
[14] = Klebsiella pneumoniae, MGH2, read-out: Minimal Inhibitory Concentration MIC

SMILES | MIC [1, 10] [µg/mL] | MIC (Escherichia coli Vogel) [µg/mL] | MIC [2] [µg/mL] | MIC [3] [µg/mL] | MIC [4] [µg/mL] | MIC [5, 11] [µg/mL] | MIC [6, 12] [µg/mL] | MIC [7, 13] [µg/mL] | MIC [8] [µg/mL] | MIC [9] [µg/mL] | MIC ([1]; Enterobacter cloacae, MA2646, read-out: Minimal Inhibitory Concentration MIC) [µg/mL] | MIC [5, 14] [µg/mL] | MIC ([6]; Pseudomonas aeruginosa, UI18, read-out: Minimal Inhibitory Concentration MIC) [µg/mL] | MIC (Proteus rettgeri M 1771) [µg/mL] | MIC ([7]; Staphylococcus aureus, UC76, read-out: Minimal Inhibitory Concentration MIC) [µg/mL]
Cc1c(F)c(N2CCNCC2)c(F)c2c1c(=O)c(C(=O)O)cn2C1CC1 [Ex. 1, 1-Cyclopropyl-6,8-difluoro-1,4-dihydro-5-methyl-4-oxo-7-(1-piperazinyl)-3-quinolinecarboxylic acid] | 0.025 (≈ 0.0688 µM) | 0.025 (≈ 0.0688 µM) | 0.05 (≈ 0.138 µM) | 0.025 (≈ 0.0688 µM) | 0.05 (≈ 0.138 µM) | 0.025 (≈ 0.0688 µM) | 0.2 (≈ 0.55 µM) | 0.025 (≈ 0.0688 µM) | 0.05 (≈ 0.138 µM) | 0.025 (≈ 0.0688 µM) | – | – | – | – | –
Cc1c(F)c(N2CCC(N)C2)c(F)c2c1c(=O)c(C(=O)O)cn2C1CC1 (centres unmarked) [Ex. 2, 7-(3-Amino-1-pyrrolidinyl)-1-cyclopropyl-6,8-difluoro-1,4-dihydro-5-methyl-4-oxo-3-quinolinecarboxylic acid] | 0.006 (≈ 0.0165 µM) | 0.006 (≈ 0.0165 µM) | 0.025 (≈ 0.0688 µM) | 0.013 (≈ 0.0358 µM) | 0.013 (≈ 0.0358 µM) | 0.013 (≈ 0.0358 µM) | 0.4 (≈ 1.1 µM) | 0.003 (≈ 0.00826 µM) | 0.025 (≈ 0.0688 µM) | 0.003 (≈ 0.00826 µM) | – | – | – | – | –
CCNCC1CCN(c2c(F)c(C)c3c(=O)c(C(=O)O)cn(C4CC4)c3c2F)C1 (centres unmarked) [Ex. 3, 1-Cyclopropyl-7-[3-[(ethylamino)methyl]-1-pyrrolidinyl]-6,8-difluoro-1,4-dihydro-5-methyl-4-oxo-3-quinolinecarboxylic acid] | 0.1 (≈ 0.247 µM) | 0.05 (≈ 0.123 µM) | 0.2 (≈ 0.493 µM) | 0.013 (≈ 0.0321 µM) | 0.006 (≈ 0.0148 µM) | 0.1 (≈ 0.247 µM) | 0.8 (≈ 1.97 µM) | 0.003 (≈ 0.0074 µM) | 0.025 (≈ 0.0617 µM) | 0.003 (≈ 0.0074 µM) | – | – | – | – | –
Cc1c(F)c(N2CCC(C)(CN)C2)c(F)c2c1c(=O)c(C(=O)O)cn2C1CC1 (centres unmarked) [Ex. 4, 7-[3-(Aminomethyl)-3-methyl-1-pyrrolidinyl]-1-cyclopropyl-6,8-difluoro-1,4-dihydro-5-methyl-4-oxo-3-quinolinecarboxylic acid] | – | 0.05 (≈ 0.128 µM) | 0.2 (≈ 0.511 µM) | 0.006 (≈ 0.0153 µM) | 0.003 (≈ 0.00766 µM) | – | 0.8 (≈ 2.04 µM) | 0.003 (≈ 0.00766 µM) | 0.025 (≈ 0.0639 µM) | 0.003 (≈ 0.00766 µM) | 0.05 (≈ 0.128 µM) | 0.1 (≈ 0.255 µM) | – | – | –
Cc1c(F)c(N2CCNC(C)C2)c(F)c2c1c(=O)c(C(=O)O)cn2C1CC1 (centres unmarked) [Ex. 5, 1-Cyclopropyl-6,8-difluoro-1,4-dihydro-5-methyl-7-[3-methyl-1-piperazinyl]-4-oxo-3-quinolinecarboxylic acid] | 0.025 (≈ 0.0662 µM) | 0.05 (≈ 0.132 µM) | 0.1 (≈ 0.265 µM) | 0.025 (≈ 0.0662 µM) | 0.006 (≈ 0.0159 µM) | 0.05 (≈ 0.132 µM) | – | 0.013 (≈ 0.0344 µM) | 0.1 (≈ 0.265 µM) | 0.025 (≈ 0.0662 µM) | – | – | 0.4 (≈ 1.06 µM) | – | –
Cc1c(F)c(N2CC(C)NC(C)C2)c(F)c2c1c(=O)c(C(=O)O)cn2-c1ccc(F)cc1F (centres unmarked) [Ex. 14a, 6,8-Difluoro-1-(2,4-difluorophenyl)-1,4-dihydro-5-methyl-7-(3,5-dimethyl-1-piperazinyl)-4-oxo-3-quinolinecarboxylic acid] | 0.4 (≈ 0.863 µM) | 0.4 (≈ 0.863 µM) | – | 0.4 (≈ 0.863 µM) | 1.6 (≈ 3.45 µM) | 1.6 (≈ 3.45 µM) | 3.1 (≈ 6.69 µM) | – | 1.6 (≈ 3.45 µM) | 0.8 (≈ 1.73 µM) | – | – | – | 3.1 (≈ 6.69 µM) | 0.2 (≈ 0.432 µM)
Cc1c(F)c(N2CCC(N)C2)c(F)c2c1c(=O)c(C(=O)O)cn2-c1ccc(F)cc1F (centres unmarked) [Ex. 15, 7(3-Amino-1-pyrrolidinyl)-6,8-difluoro-1-(2,4-difluorophenyl)-1,4-dihydro-5-methyl-4-oxo-3-quinolinecarboxylic acid] | 0.025 (≈ 0.0574 µM) | 0.025 (≈ 0.0574 µM) | – | 0.05 (≈ 0.115 µM) | 0.1 (≈ 0.23 µM) | – | 0.8 (≈ 1.84 µM) | 0.025 (≈ 0.0574 µM) | 0.2 (≈ 0.459 µM) | 0.1 (≈ 0.23 µM) | – | 0.1 (≈ 0.23 µM) | – | 0.2 (≈ 0.459 µM) | –
Cc1c(F)c(N2CCNCC2)cc2c1c(=O)c(C(=O)O)cn2-c1ccc(F)cc1F [Ex. 17, 6-Fluoro-1-(2,4-difluorophenyl)-1,4-dihydro-5-methyl-4-oxo-7-(1-piperazinyl)-3-quinolinecarboxylic acid] | 0.05 (≈ 0.12 µM) | 0.05 (≈ 0.12 µM) | – | 0.1 (≈ 0.24 µM) | 0.1 (≈ 0.24 µM) | 0.1 (≈ 0.24 µM) | 0.8 (≈ 1.92 µM) | 0.025 (≈ 0.0599 µM) | 0.2 (≈ 0.479 µM) | 0.05 (≈ 0.12 µM) | – | – | – | 0.2 (≈ 0.479 µM) | –
